Experimental findings from PMC5291402 (The Plant Pathology Journal, 2017) are described below.

In one test the test system is SR strain XccM8. It is filed as in vivo, Xanthomonas citri subsp. citri. The note with it: 50 μg/ml or 100 μg/ml, SR mutant XccM8, citrus leaves.
Test [1] has as its system Xanthomonas citri subsp. citri 57-2 (XcsM6), strB located in Tn5393. The test is described as follows: Streptomycin MIC/MBC of the strains used. The test is classed as cell-based.
Another test relates to wild type strain XccW2. It is filed as in vivo, Xanthomonas citri subsp. citri.
Test [2] relates to Xanthomonas citri subsp. citri 19-18 (XscW1), WT. The test is described as follows: Streptomycin MIC/MBC of the strains used. It is filed as cell-based.
The subject of another test is wild type strains of Xcc. The test is described as follows: Streptomycin MIC, wild type strains. The settings on record: Xanthomonas citri, read-out: MICs of wild type strains of Xcc. It is filed as cell-based, Xanthomonas citri subsp. citri.
For test [3], the system named is Xanthomonas citri subsp. citri 8-4 (XcsM5), rpsL41 (K42R in S12). The test is classed as cell-based.
Test [4] has as its system Xanthomonas citri subsp. citri 10-5 (XscW2), WT. Description: Streptomycin MIC/MBC of the strains used. The test is classed as cell-based.
Test [5] deals with Xanthomonas citri subsp. citri 27-13 (XcsM8), rpsL41 & strB double mutant. It is filed as cell-based.

SMILES strings stand for the structures. In brackets after ≈: the same amount, converted by molar mass.

Consider `[H]/N=C(/N)N[C@H]1[C@H](O)[C@@H](O)[C@H](O[C@@H]2O[C@@H](C)[C@](O)(C=O)[C@H]2O[C@@H]2O[C@@H](CO)[C@H](O)[C@@H](O)[C@@H]2NC)[C@@H](N/C(N)=N\[H])[C@@H]1O` [Streptomycin], for which the “suppression of disease progress” value in the test with SR strain XccM8 is “did not suppress the disease progress”. The MBC in test [1] was 3670 µg/mL. Besides, the MIC in test [1] was 3330 µg/mL; in test [2], 1 µg/mL; with wild type strains of Xcc, 1 to 2 µg/mL (≈ 1.72 to 3.44 µM); in test [3], 6,000 μg/ml; in test [4], 2 µg/mL; in test [5] it was 3,000 μg/ml. The “delay of the first pustule formation” value in the test with wild type strain XccW2 (50 μg/ml, wild type Xcc, citrus leaves (data not shown)) is “about 1 day”. In the test on wild type strain XccW2 (100 μg/ml, co-infiltrated with wild type Xcc into citrus leaves), the “days to form the first yellowish halo around the pustule (index 2)” value turned out to be 10 days. Moreover, the “suppression of symptom development” value in the test with wild type strain XccW2 (wild type Xcc, citrus leaves, monitored 17 days after inoculation) is listed as “suppressed up to 17 days”.
